The values that follow come from patent publication US10799597B2, “Subcutaneous administration of antibody-drug conjugates for cancer therapy” (Immunomedics, Inc., priority 2017, dated 2020).

The test system of data set [1] is Calu-3 non-small cell lung carcinoma xenografts. Kind of data set: Therapy of Calu-3 tumor xenografts in nude mice. As to conditions: 0.4 mg/kg SN-38 q4dx4. The data set is classed as in vivo, athymic nude mice. As for the experimental part:
FIG. 4A. […] Mice bearing Calu-3 tumors (N=5-7) were injected with hRS7-CL2-SN-38 every 4 days for a total of 4 injections (q4dx4).

For data set [2], the system named is COLO 205 colonic adenocarcinoma xenografts.
The subject of data set [3] is Capan-1 pancreatic adenocarcinoma xenografts. Kind of data set: Therapy of Capan-1 tumor xenografts in nude mice. Type of data set: in vivo, athymic nude mice. As to conditions: 0.2 mg/kg SN-38 twice weekly×4 weeks. As to the method:
FIG. 3C. […] Animals were treated twice weekly for 4 weeks as indicated by the arrows. Capan-1 mice (N=10) were treated with 0.2 mg/kg ADC and tumors measured weekly.
FIG. 4C. […] Capan-1 (N=10) were treated twice weekly for 4 weeks with the agents indicated.

Data set [4] deals with Calu-3. Kind of data set: Signaling events (p21Waf1/Cip1, p53) in Calu-3 cells. Type of data set: cell-based, human. From the text:
(§1) SN-38 is known to activate several signaling pathways in cells, leading to apoptosis (e.g., Cusack et al., 2001, Cancer Res 61:3535-40; Liu et al. 2009, Cancer Lett 274:47-53; Lagadec et al., 2008, Br J Cancer 98:335-44). Our initial studies examined the expression of 2 proteins involved in early signaling events (p21^Waf1/Cip1 and p53) and 1 late apoptotic event [cleavage of poly-ADP-ribose polymerase (PARP)] in vitro (not shown).

Data set [5] deals with BxPC-3. In words: Signaling events (p21Waf1/Cip1, p53) in BxPC-3 cells. The data set is classed as cell-based, human.
Description: as §1

A short description of data set [6]: Tolerability in Cynomolgus monkeys. The data set is classed as in vivo, Cynomolgus monkeys (Macaca fascicularis). As for the experimental part: FIG. 5C. Tolerability of hRS7-CL2A-SN-38 in Cynomolgus monkeys. […] All animals were bled on day −1, 3, and 6. Four monkeys were bled on day 11 in the 0.96 mg/kg group, 3 in the 1.92 mg/kg group. Changes in neutrophil counts in Cynomolgus monkeys.
FIG. 5D. Tolerability of hRS7-CL2A-SN-38 in Cynomolgus monkeys. […] All animals were bled on day −1, 3, and 6. Four monkeys were bled on day 11 in the 0.96 mg/kg group, 3 in the 1.92 mg/kg group. Changes in platelet counts in Cynomolgus monkeys.

Data set [7] has as its system diverse metastatic cancers. In words: Phase I/II clinical trial of IMMU-132 (Example 9): best response and TTP.
A short description of data set [8]: Body weight loss in the murine therapy studies. Type of data set: in vivo, mice. As to conditions: all murine studies.
Data set [9] relates to MDA-MB-468. Kind of data set: MTS cytotoxicity assay, MDA-MB-468. The data set is classed as cell-based, human. As to conditions: Example 5, 96 h.
The nature of data set [10]: Pharmacokinetics of MAb vs. ADC (IMMU-130) in mice. The data set is classed as in vivo. As to the method: Experiments were conducted in female athymic nude mice, 4 weeks or older, bearing s.c. LS174T human colon carcinoma xenografts of (˜0.2 cm^3 size), or 2 weeks after lung metastases were generated by i.v. injection of GW-39 human colon carcinoma cells. Untreated controls, including a non-targeting ADC, were included. […] Tolerability studies were conducted in white New Zealand rabbits.

Data set [11] relates to SK-MES-1 human squamous cell lung tumors. In words: Therapy of SK-MES-1 tumor xenografts in nude mice. As to conditions: hA20 ADC equal dose; irinotecan at MTD (q2dx5).
A short description of data set [12]: FIG. 3A. As for the experimental part:
Table printed on a drawing sheet, FIG. 3A
Footnotes: CL2-SN-38: AA = Phe / CL2A-SN-38: AA = None
The patent's description of the figure: FIG. 3A. Structures of CL2-SN-38 and CL2A-SN-38.
FIG. 3C. […] Capan-1 mice (N=10) were treated with 0.2 mg/kg ADC and tumors measured weekly.

The mark [13] stands for this setting: esophageal cancer, 4 assessable patients.

On to hLL2-CL2-SN-38 [reference compound], for which the tumor outcome in [1] is “tumors regrew”.
Turning to hRS7-CL2-SN-38 [listing 1 of 2 here], in data set [2] (0.4 mg/kg SN-38 twice weekly×4 weeks), the “tumor growth vs. saline and hA20-CL2A-SN-38” value is on record as “significantly inhibited tumor growth”. In addition, in data set [3], the “tumor growth vs. saline and hA20-CL2A-SN-38” value is “significantly inhibited tumor growth”. Moreover, the “mice tumor-free at the end of the study” value in [3] (day 140) is recorded as 40%. Also, in data set [1], the “time by which all mice were cured” value was no more than 28 days and the tumor outcome is recorded as “remained tumor-free until the end of the study on day 147”.
With hRS7 IgG, the “time of p53 upregulation” value in data set [4] and in data set [5] was 48 h each time.
As for hRS7-SN-38, in data set [6] (cynomolgus monkey, in vivo), the “tolerated cumulative human equivalent dose” value stood at 22 mg/m^2. The tolerated dose in data set [6] (mild and reversible toxicity) is 0.96 mg/kg/dose. The extrapolated human dose in data set [6] (per dose) was roughly 11 mg/m^2. Moreover, the “reduction in target lesions” value in data set [7] (CRC patient, 8 mg/kg, first CT assessment) stood at 37%. Besides, the “maximum reduction in target lesions” value in data set [7] (CRC patient, after 10 months of treatment) was 65%. Besides, the “Best Response: PD, number of patients” value in [7] (CRC, 18 assessable patients) is 6; in data set [7] (NSCLC, 5 assessable patients), 1; in [7] (SCLC, 4 assessable patients), 2; in data set [7] (TNBC, 8 assessable patients), 2; in data set [7] (all patients, 48 assessable), 14; in [7] (setting [13]), 1. Also, the “Best Response: PR, number of patients” value is recorded as 1 in data set [7] (CRC, 18 assessable patients); 1 in data set [7] (NSCLC, 5 assessable patients); 2 in data set [7] (SCLC, 4 assessable patients); 2 in data set [7] (TNBC, 8 assessable patients); 7 in data set [7] (all patients, 48 assessable); 1 in data set [7] (setting [13]). For the same compound, the “Best Response: SD, number of patients” value in data set [7] (CRC, 18 assessable patients) is on record as 11; in [7] (NSCLC, 5 assessable patients), 3; in [7] (SCLC, 4 assessable patients) it was 0; in data set [7] (TNBC, 8 assessable patients), 4; in data set [7] (all patients, 48 assessable) it was 27; in data set [7] (setting [13]), 2. In addition, the “tolerability in terms of body weight loss” value in [8] is recorded as “well tolerated”.
By IC50 is commonly meant the point on the concentration scale where inhibition reaches its midpoint. Lower therefore signals higher potency. In data set [9] (Homo sapiens, MDA-MB-468), `CC(=O)O[C@H]1C(=O)[C@@]2(C)[C@H]([C@H](OC(=O)c3ccccc3)[C@]3(O)C[C@H](OC(=O)[C@H](O)[C@@H](NC(=O)c4ccccc4)c4ccccc4)C(C)=C1C3(C)C)[C@]1(OC(C)=O)CO[C@@H]1C[C@@H]2O` [paclitaxel] returned a half-inhibitory concentration (IC50) of less than 0.061 nM.
Turning to labetuzumab, the “half-life longer for MAb vs. ADC” value in data set [10] is roughly 25%.
In the case of `CCc1c2c(nc3ccc(O)cc13)-c1cc3c(c(=O)n1C2)COC(=O)[C@]3(O)CC` [SN-38, reference compound], the “time of p53 upregulation” value in data set [4] and in [5] was 48 h throughout. The IC50 in data set [9] came to 1.54 nM.
Regarding `CCc1c2c(nc3ccc(OC(=O)N4CCC(N5CCCCC5)CC4)cc13)-c1cc3c(c(=O)n1C2)COC(=O)[C@]3(O)CC` [irinotecan, reference compound], the “effectiveness of the MTD of irinotecan” value in data set [2] (24 mg SN-38/kg, q2dx5) is “as effective as hRS7-CL2-SN-38”. For the same compound, the “antitumor effect relative to the specific conjugate” value in data set [11] is recorded as “provided the same antitumor effects as the specific hRS7-SN-38 conjugate”.
On to hRS7-CL2A-SN-38, for which, in data set [12], the “HUMAN SERUM HALF-LIFE” value came out at 20.3 h.
hRS7-CL2-SN-38 [listing 2 of 2 here]: in [12], the “HUMAN SERUM HALF-LIFE” value was 22.1 h.
